The values that follow come from paper PMC11786100, “Chronic GIPR agonism results in pancreatic islet GIPR functional desensitisation” (Molecular Metabolism, 2025).

pEC50: −log10 of the molar value. Where two headings read alike, the source gives them in different places.

The test system of data set [1] is murine hypothalamic neurons. Description: cADDis cAMP imaging in primary hypothalamic neurons. Type of data set: cell-based, mouse. Particulars: 5-minute stimulation, n=4. As for the experimental part: (§1) Primary cultures of mouse hypothalamic neurons and dispersed pancreatic islets were transduced with the Green Up cADDis biosensor (Montana Molecular, US). Pancreatic islets from CAMPER^Pdx−1-CreERT2 and CAMPER^Som-Cre mice were not transduced. Cells were pre-treated with peptides as specified, dissolved in culture media. Following 4 h or overnight incubation and a 1-hour washout period, cells were imaged using an epifluorescence microscope at baseline (t = 3 min), following peptide addition (t = 10 min, unless specified otherwise), and following 3-isobutyl-1-methylxanthine (IBMX) (500 μM) and forskolin (FSK) (50 μM) addition (t = 3 min) to maximally stimulate the sensor. In pre-treatment experiments, islet cell fluorescence was normalised to the IBMX/FSK response which was set as 100%. In non-pre-treatment experiments, islet and neuronal cell fluorescence was normalised to both the baseline and IBMX/FSK response. The area-under-the-curve (AUC) for each cell was quantified. Full details of isolation, transduction, plating, imaging and image analysis is provided in the supplementary methods.
Primary cultures of hypothalamic neurons were prepared from 6-week-old male and female mice as described previously [2*]. A minor difference was that the neuronal pellet was resuspended in Neurobasal-A medium containing 0.25% Glutamax, 2% B27 and 25 ng/ml NGF (all Thermo Fisher, UK) (neuronal culture media).
Hypothalamic neurons: 100 μL cell suspension of neurons in neuronal culture media was seeded on 35 mm petri dish (MatTek Corporation), pre-coated with 0.01% poly-D-lysine hydrobromide. […]
cAMP quantification from the raw islet/neuronal images was performed using Fiji v1.54f (NIH). […] The fluorescence intensity of each ROI was measured at each time point. In pre-treatment experiments, islet cell fluorescence was normalised to the maximal IBMX/FSK response which was set as 100%. For non-pre-treatment experiments, neuronal and islet cell fluorescence were normalised to both the baseline and maximal IBMX/FSK response. The AUC during peptide stimulation for each cell was quantified. […]

For a further data set, the system named is dispersed islet cells. Kind of data set: cADDis cAMP concentration-response in dispersed islets. Type of data set: cell-based, mouse. Conditions: for pEC50: three-parameter fit, n=5, read-out: calculated EC50, cAMP in dispersed islets. Here is the method:
as §1
Dispersed islets: A cell suspension of dispersed islets in RPMI-1640 + 10% FBS + 1% P/S (islet complete media) was seeded onto square 96 well µ-plates (Ibidi, UK), coated with 0.01% poly-D-lysine hydrobromide (Sigma-Aldrich, UK) and 25 µg/ml mouse laminin (Thermo Fisher, UK). For cADDis experiments, cells were transduced with the Green Up cADDis biosensor (15 μL of cADDis, 1.5 μL of sodium butyrate per well: Montana Molecular, US). Cells were incubated overnight (37°C, 95%:5% O2:CO2 ratio).
Cells were imaged in Krebs buffer with 6 mM glucose and 0.1% BSA (unless 10% FBS was specified) at 37°C using an automated epifluorescence microscope (modified Nikon Ti-2E with LED illumination). Multiple fields of view (FOV) were imaged in parallel (for islets, multiple wells of a 96 well plate were imaged in parallel), allowing hundreds to thousands of cells to be imaged every minute throughout the time course. For all acquisitions, the first three minutes were baseline recording pre-peptide addition and the last three minutes were a positive control following IBMX (500 μM) and forskolin (50 μM) addition to maximally stimulate the sensor.
cAMP quantification from the raw islet/neuronal images was performed using Fiji v1.54f (NIH). For each acquisition, a flat-field (BaSiC [3*]) correction was applied, and intensity thresholding enabled cell-containing regions to be identified as regions-of-interest (ROIs). The fluorescence intensity of each ROI was measured at each time point. In pre-treatment experiments, islet cell fluorescence was normalised to the maximal IBMX/FSK response which was set as 100%. For non-pre-treatment experiments, neuronal and islet cell fluorescence were normalised to both the baseline and maximal IBMX/FSK response. The AUC during peptide stimulation for each cell was quantified. Neurons with an AUC greater than 75 (representing a response 15 % of the maximum IBMX/FSK response) were deemed responder neurons.
We aimed to determine appropriate pre-treatment doses of GIPR agonists which would produce detectable cAMP responses, indicating target engagement, and were compatible with an extended incubation in complete medium, which could influence ligand availability via binding to serum proteins. We first performed concentration-response analysis in dispersed islets transduced with cADDis in the presence of 10% FBS (Figure S2A, B, D, E).
To determine a sensible re-challenge dose of GIPR agonists, a further concentration-response analysis was conducted in cADDis-transduced dispersed islets in imaging buffer (Krebs buffer + 6 mM glucose + 0.1% BSA, i.e. without FBS) (Figure S2C, F). […] Therefore, 1 μM of GIP108 and 100 nM of GIP were chosen as peri-maximal re-stimulation doses for the remaining islet cAMP assays.
GLP-1R agonist pre-treatment dose selection was performed concurrently with GIPR agonist dose selection.

A short description of data set [2]: Peptide stability in complete medium with dispersed islet cells (cAMP bioactivity assay). Type of data set: in vitro ADME, mouse.
Procedure: AD-293 cells were added to a 12-well plate and maintained in 2 ml complete DMEM. 1 μg of specified plasmid DNA was added to each well alongside Lipofectamine 2000 (Thermo Fisher, UK). cAMP production was quantified 24 hours following transfection using homogenous time resolved fluorescence (HTRF), specifically the cAMP-Gs Dynamic 2 kit (Cisbio, France). Peptides and cells were diluted in DMEM + 1% P/S + 0.1% BSA. For peptide stability testing, cells, fresh peptide and peptide incubated with dispersed islet cells were diluted in RPMI-1640 (Thermo Fisher, UK) + 10% FBS + 1% P/S. 10 μl of peptide and 10 μl of cell suspension were added in duplicate to an opaque 96-well plate (Grenier Bio-One, Austria) and incubated at 37°C for 30 minutes. 10 μl of cAMP-d2 and anti-cAMP cryptate, both diluted in lysis buffer, were added in quick succession as per the manufacturer’s protocol. The plates were then incubated at room temperature for 45 minutes and read using the SpectraMax i3x (Molecular Devices, US).
Three-parameter curve fitting was applied.
The next data set deals with T1, GLP-1R (Mus musculus, UniProt O35659).
T1 construct: from tissue; host or cells: dispersed mouse pancreatic islets
T1 sequence (O35659 22-463): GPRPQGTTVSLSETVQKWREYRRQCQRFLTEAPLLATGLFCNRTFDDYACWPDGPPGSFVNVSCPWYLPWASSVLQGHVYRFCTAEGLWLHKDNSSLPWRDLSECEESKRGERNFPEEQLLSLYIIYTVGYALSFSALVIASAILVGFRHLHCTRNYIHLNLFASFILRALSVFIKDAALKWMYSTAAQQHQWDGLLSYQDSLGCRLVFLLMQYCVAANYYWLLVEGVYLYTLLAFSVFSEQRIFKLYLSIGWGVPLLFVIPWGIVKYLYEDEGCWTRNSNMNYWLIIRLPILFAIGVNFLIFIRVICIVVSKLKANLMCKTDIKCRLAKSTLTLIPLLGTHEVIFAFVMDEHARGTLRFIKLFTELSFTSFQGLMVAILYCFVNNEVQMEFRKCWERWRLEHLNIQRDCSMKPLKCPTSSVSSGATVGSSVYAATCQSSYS
Kind of data set: Ex vivo islet GLP-1R desensitisation (pre-treat/washout/rechallenge cAMP). The format is cell-based. Particulars: dispersed islets, cADDis. Here is the method:
as §1, with “Full details of isolation, transduction, plating, imaging and image analysis is provided in the supplementary methods.” left out
cAMP quantification from the raw islet/neuronal images was performed using Fiji v1.54f (NIH). […] The fluorescence intensity of each ROI was measured at each time point. In pre-treatment experiments, islet cell fluorescence was normalised to the maximal IBMX/FSK response which was set as 100%. […] The AUC during peptide stimulation for each cell was quantified. […]

Where [3] appears, read: imaging buffer (Krebs + 6 mM glucose + 0.1% BSA, without FBS).
Where [4] appears, read: in the presence of 10% FBS, stepwise addition.

Take `CC[C@H](C)[C@H](NC(=O)[C@H](CO)NC(=O)[C@H](Cc1ccc(O)cc1)NC(=O)[C@H](CC(=O)O)NC(=O)[C@H](CO)NC(=O)[C@@H](NC(=O)[C@H](Cc1ccccc1)NC(=O)[C@@H](NC(=O)CNC(=O)[C@H](CCC(=O)O)NC(=O)C(C)(C)NC(=O)[C@@H](N)Cc1ccc(O)cc1)[C@@H](C)O)[C@@H](C)CC)C(=O)N[C@@H](C)C(=O)N[C@@H](CC(C)C)C(=O)N[C@@H](CC(=O)O)C(=O)N[C@@H](CCCCN)C(=O)N[C@H](C(=O)N[C@@H](Cc1c[nH]cn1)C(=O)N[C@@H](CCC(N)=O)C(=O)N[C@@H](CCC(N)=O)C(=O)N[C@@H](CC(=O)O)C(=O)N[C@@H](Cc1ccccc1)C(=O)N[C@H](C(=O)N[C@@H](CC(N)=O)C(=O)N[C@@H](Cc1c[nH]c2ccccc12)C(=O)N[C@@H](CC(C)C)C(=O)N[C@@H](CC(C)C)C(=O)N[C@@H](C)C(=O)N[C@@H](CCC(N)=O)C(=O)N[C@@H](CCCCN)C(=O)NCC(=O)N[C@@H](CCCCNC(=O)CC[C@H](NC(=O)CCCCCCCCCCCCCCCCCCC(=O)O)C(=O)O)C(=O)N[C@@H](CCCCN)C(=O)N[C@@H](CC(N)=O)C(=O)N[C@@H](CC(=O)O)C(=O)N[C@@H](Cc1c[nH]c2ccccc12)C(=O)N[C@@H](CCCCN)C(=O)N[C@@H](Cc1c[nH]cn1)C(=O)N[C@@H](CC(N)=O)C(=O)N[C@H](C(=O)N[C@H](C(=O)N[C@@H](CCC(N)=O)C(=O)O)[C@@H](C)O)[C@@H](C)CC)C(C)C)[C@@H](C)CC` [GIP108]: the “cAMP response of hypothalamic neurons” value in data set [1] (100 nM and 1 μM) was “failed to show detectable responses”. Also, the figures for the “doses above which cAMP responses were detectable” value with dispersed islet cells (setting [3]) and in the data set on dispersed islet cells (in the presence of 10% FBS) were “above 10 nM” and “above 100 nM”, respectively. For the same compound, the pEC50 (usually the EC50 on a negative log10 scale, so that one unit is a factor of ten) in the data set with dispersed islet cells (imaging buffer (Krebs buffer + 6 mM glucose + 0.1% BSA, without FBS)) was 6.66; in the data set on dispersed islet cells (setting [4]), 5.71. Moreover, the “stability at 24 hours” value in data set [2] (1 μM in complete medium with dispersed islet cells, cAMP bioactivity in mouse GIPR AD-293 cells) is “remained partially stable at 24 hours”. Besides, in data set [2] (peptide at 1 μM in complete medium (RPMI-1640 + 10% FBS + 1% P/S) with dispersed islet cells, 24 h, concentrations halved during assay, read-out cAMP in mouse GIPR-expressing AD-293 cells, n=4), the “concentration remaining from 500 nM after 24 hours” value is reported as 215 nM. Moreover, the “cAMP response to GLP-1 (100 nM) after GIP108 pre-treatment” value on GLP-1R (24-hour pre-treatment with GIP108 (1 μM), n=3) is “small but significant decrease”.
With GLP-1(7–36)·NH2, the “cAMP response of hypothalamic neurons” value in data set [1] (10 and 100 nM) is on record as “significant responses”. Moreover, the “doses above which cAMP responses were detectable” value in the data set with dispersed islet cells (setting [3]) and in the data set on dispersed islet cells (in the presence of 10% FBS) was “above 0.1 nM” in each case. The pEC50 in the data set with dispersed islet cells (setting [4]) is 9.53. The “concentration remaining from 500 nM after 24 hours” value in data set [2] amounted to 0.177 nM. For the same compound, on GLP-1R (pre-treatment GLP-1 (10 nM), rechallenge GLP-1 (1 nM), n = 3), the “GLP-1R desensitisation after 4 h pre-treatment” value was “partial GLP-1R desensitisation, this was not statistically significant”.
